Assay results published in patent US5516796A, “Thioprostaglandins and -prostaglandin-like compounds and therapeutic uses thereof” (Kabi Pharmacia AB, priority 1994, dated 1996).

Experiments:
[1] = test system: eye; assay: Surface hyperemia of the eye after topical application, scale 0-5; assay type: in vivo, rabbits; conditions: 0.5 μg; for Maximum surface hyperemia of the eye, Difference (Exp Eye vs Cont Eye) / Maximum surface hyperemia of the eye, Exp Eye: rabbits, topical, mean ± SEM, n = 6; for Ocular surface hyperemia grade: same test system
Procedure: (§1) Experiments were performed in cats and rabbits. The test compounds were administered topically to the eye. The compounds were tested by using a single dose of each concentration. The intraocular pressure in cats was measured with a pneumotonometer (Digilab Modular One, BioRad). Before the measurement the cornea was anaesthetized with 1-2 drops of oxibuprocain. The ocular irritation (discomfort) caused by the test compounds was assessed without anaesthesia in the same animals. The irritation was graded on an arbitrary scale 0-3, 0 indicating absence of irritation, and 3 indicating maximum irritation as obvious from complete lid closure. Surface hyperemia of the eye (redness of the eye) was evaluated in rabbits. The eye was photographed at regular intervals and the degree of hyperemia was evaluated from the color photographs in a masked way. The hyperemia was evaluated on an arbitrary scale 0-5, 0 indicating absence of hyperemia and 5 marked hyperemia and conjunctival chemosis. All compounds were formulated in physiologic saline using polysorbate 80 as solubilizer. The same volume of the vehicle only was applied topically on the contralateral control eye.
Maximum surface hyperemia of the eye after
topical application of different thioprostaglandins in
rabbits. (Mean ± SEM, n = 6).

[2] = test system: eye; assay: Maximum reduction of intraocular pressure in cats after topical application; assay type: in vivo; conditions: for Intraocular pressure, Exp Eye / Maximum reduction of intraocular pressure, Difference (Exp Eye vs Cont Eye): 1-3 hours after application, mean ± SEM, n = 6
Procedure: as §1
Maximum reduction of intraocular pressure in cats 1-3 hours after
application of different thioprostaglandin compounds (Mean ± SEM; n =

[3] = test system: eye; assay: Ocular irritation (discomfort) after topical application, scale 0-3; assay type: in vivo, cats; conditions: for Maximum ocular irritation, Difference (experimental vs contralateral control eye): cats, topical, mean ± SEM, n = 6; for Ocular irritation grade (maximum irritation): same test system
Procedure: as §1
Maximum ocular irritation after topical
application of different thioprostaglandin compounds in
cats. The values represent the difference between the
experimental and contralateral control eyes (Mean ± SEM,

[4] = test system: platelet aggregation; assay: In vitro bioassay, platelet aggregation; assay type: cell-based
Source text: (§2) In vitro bioassay studies of thioprostaglandins according to this invention have shown that such thioprostaglandins exert biological effects on several mammalian tissues and organ systems. […] These biological effects have no known relationship to the IOP lowering effects of these prostaglandins.

[5] = test system: circular preparation of the guinea pig ileum; assay: In vitro bioassay, guinea pig ileum circular preparation
Source text: as §2

[6] = test system: rat gastric fundus; assay: In vitro bioassay, rat gastric fundus
Source text: as §2

[7] = test system: bovine iris sphincter; assay: In vitro bioassay, bovine iris sphincter
Source text: as §2

[8] = test system: cat iris sphincter; assay: In vitro bioassay, cat iris sphincter
Source text: as §2

Compound: CCCCC[C@H](O)/C=C/[C@H]1C(Sc2ccccc2C(=O)OC)CC(=O)[C@@H]1C/C=C\CCCC(=O)OC (some centres unmarked) [Compound 7, 11-Deoxy-11-[thio-2-(methylbenzoate)-]PGE2 methyl ester]
- Maximum surface hyperemia of the eye, Difference (Exp Eye vs Cont Eye) [1]: 0.6 ± -0.2
- Maximum surface hyperemia of the eye, Exp Eye [1]: 1.2 ± -0.2
- Intraocular pressure, Exp Eye ([2]; 1 ug): 16.2 ± -1.3 mmHg
- Maximum reduction of intraocular pressure, Difference (Exp Eye vs Cont Eye) ([2]; 1 ug): -4.3 ± -0.7 mmHg
- Maximum ocular irritation, Difference (experimental vs contralateral control eye) ([3]; 1 μg): 1.08 ± -0.2

Compound: CCCCC[C@H](O)/C=C/[C@H]1[C@H](O)CC(=O)[C@@H]1C/C=C\CCCC(=O)OC(C)C [PGE2 -isopropyl ester, reference compound]
- Ocular surface hyperemia grade [1]: ≥ 2.9 grade
- Ocular irritation grade (maximum irritation) ([3]; 1 μg): 3 grade

Compound: CCCCC[C@H](O)/C=C/[C@H]1C(SCC(N)C(=O)OCC)CC(=O)[C@@H]1C/C=C\CCCC(=O)OCc1ccccc1 (some centres unmarked) [Compound 4]
- Effect on platelet aggregation [4]: affect platelet aggregation
- Stimulation of the circular preparation of the guinea pig ileum [5]: stimulate
- Intraocular pressure, Exp Eye ([2]; 3 ug): 16.3 ± -0.7 mmHg
- Maximum reduction of intraocular pressure, Difference (Exp Eye vs Cont Eye) ([2]; 3 ug): -4.3 ± -1.6 mmHg
- Intraocular pressure, Exp Eye ([2]; 10 ug): 14.0 ± -0.7 mmHg
- Maximum reduction of intraocular pressure, Difference (Exp Eye vs Cont Eye) ([2]; 10 ug): -5.8 ± -1.1 mmHg
- Stimulation of the rat gastric fundus [6]: stimulate
- Stimulation of the bovine iris sphincter [7]: stimulate
- Stimulation of the cat iris sphincter [8]: stimulate
- Maximum ocular irritation, Difference (experimental vs contralateral control eye) ([3]; 3 μg): 0.75 ± -0.1
- Maximum ocular irritation, Difference (experimental vs contralateral control eye) ([3]; 10 μg): 0.58 ± -0.08

Compound: CCCCC[C@H](O)/C=C/[C@H]1C(SCCC(=O)OCC)CC(=O)[C@@H]1C/C=C\CCCC(=O)OC (some centres unmarked) [Compound 5, 11-Deoxy-11-[3-thio-(1-ethylpropionate)] PGE2 methyl ester]
- Maximum surface hyperemia of the eye, Difference (Exp Eye vs Cont Eye) [1]: 0.3 ± -0.2
- Maximum surface hyperemia of the eye, Exp Eye [1]: 1.1 ± -0.2
- Reduction of intraocular pressure (in words) [2]: The strongest effect
- Reduction of intraocular pressure at low dose (in words) ([2]; 1 μg): markedly reduced the pressure
- Intraocular pressure, Exp Eye ([2]; 1 ug): 12.7 ± -1.0 mmHg
- Maximum reduction of intraocular pressure, Difference (Exp Eye vs Cont Eye) ([2]; 1 ug): -9.5 ± -0.8 mmHg
- Intraocular pressure, Exp Eye ([2]; 3 ug): 11.5 ± -1.6 mmHg
- Maximum reduction of intraocular pressure, Difference (Exp Eye vs Cont Eye) ([2]; 3 ug): -9.2 ± -1.2 mmHg
- Intraocular pressure, Exp Eye ([2]; 10 ug): 12.3 ± -1.3 mmHg
- Maximum reduction of intraocular pressure, Difference (Exp Eye vs Cont Eye) ([2]; 10 ug): -10.0 ± -0.9 mmHg
- Maximum ocular irritation, Difference (experimental vs contralateral control eye) ([3]; 1 μg): 1.08 ± -0.2
- Maximum ocular irritation, Difference (experimental vs contralateral control eye) ([3]; 3 μg): 0.58 ± -0.08
- Maximum ocular irritation, Difference (experimental vs contralateral control eye) ([3]; 10 μg): 2.00 ± -0.1

Compound: CCCCC[C@H](O)/C=C/[C@@H]1[C@@H](C/C=C\CCCC(=O)OC(C)C)[C@@H](O)C[C@H]1O [PGF2α -isopropyl ester, reference compound]
- Ocular surface hyperemia grade [1]: ≥ 2.9 grade
- Ocular irritation grade (maximum irritation) ([3]; 1 μg): 3 grade

Compound: CCCCC[C@H](O)/C=C/[C@H]1C(SCc2ccccc2)CC(=O)[C@@H]1C/C=C\CCCC(=O)OCc1ccccc1 (some centres unmarked) [Compound 3, 11-deoxy-11-thiobenzyl-PGE2 benzyl ester]
- Effect on platelet aggregation [4]: affect platelet aggregation
- Stimulation of the circular preparation of the guinea pig ileum [5]: stimulate
- Intraocular pressure, Exp Eye ([2]; 3 ug): 14.7 ± -0.7 mmHg
- Maximum reduction of intraocular pressure, Difference (Exp Eye vs Cont Eye) ([2]; 3 ug): -3.7 ± -1.3 mmHg
- Intraocular pressure, Exp Eye ([2]; 5 ug): 13.0 ± -0.4 mmHg
- Maximum reduction of intraocular pressure, Difference (Exp Eye vs Cont Eye) ([2]; 5 ug): -3.8 ± -0.5 mmHg
- 24 hour reduction of the intraocular pressure (in words) ([2]; 24 hour): Except for compound 3, all compounds caused 24 hour reduction of the intraocular pressure
- Stimulation of the rat gastric fundus [6]: stimulate
- Stimulation of the bovine iris sphincter [7]: stimulate
- Stimulation of the cat iris sphincter [8]: stimulate
- Maximum ocular irritation, Difference (experimental vs contralateral control eye) ([3]; 3 μg): 0.08 ± -0.08
- Maximum ocular irritation, Difference (experimental vs contralateral control eye) ([3]; 5 μg): 1.33 ± -0.1

Compound: CCCCC[C@H](O)/C=C/[C@H]1C(SCCO)CC(=O)[C@@H]1C/C=C\CCCC(=O)OC (some centres unmarked) [Compound 6, 11-Deoxy-11-(thio-1-ethanol)-PGE2 methyl ester]
- Maximum surface hyperemia of the eye, Difference (Exp Eye vs Cont Eye) [1]: 0.8 ± -0.1
- Maximum surface hyperemia of the eye, Exp Eye [1]: 1.7 ± -0.1
- Intraocular pressure, Exp Eye ([2]; 1 ug): 14.7 ± -1.0 mmHg
- Maximum reduction of intraocular pressure, Difference (Exp Eye vs Cont Eye) ([2]; 1 ug): -5.8 ± -1.0 mmHg
- Intraocular pressure, Exp Eye ([2]; 3 ug): 13.8 ± -0.9 mmHg
- Maximum reduction of intraocular pressure, Difference (Exp Eye vs Cont Eye) ([2]; 3 ug): -6.0 ± -1.3 mmHg
- Maximum ocular irritation, Difference (experimental vs contralateral control eye) ([3]; 1 μg): 0.92 ± -0.08
- Maximum ocular irritation, Difference (experimental vs contralateral control eye) ([3]; 3 μg): 0.67 ± -0.1
